Measurements from patent US7064139B2, “Method for treating retroviral infections” (Uniroyal Chemical Company, Inc., priority 2001, dated 2006).
≈ marks a conversion by molar mass, not a printed value.

Experiments:
Davis strain CMV = assay: Reduction of CMV-induced cytopathicity in HEL cells; type: cell-based, human cytomegalovirus (HCMV); settings: HEL cells; for Antiviral EC50 (ug/ml) Davis strain CMV / EC50: virus-induced cytopathicity after seven days; for Antiviral % Inhibition Davis strain CMV: estimate of percent protection at the concentration in the previous column; for EC50: Human betaherpesvirus 5, 168 h, read-out: Antiviral EC50 (ug/ml) Davis strain CMV
Procedure: Confluent HEL cells grown in […] microtiter plates were inoculated with CMV at an input of 100 PFU (plaque forming units) per well. After a one to two hour incubation period, residual virus was removed and the infected cells were further incubated with MEM (Minimal Essential Medium) (supplemented with 2% inactivated Fetal Calf Serum (FCS), […], and 0.3% sodium bicarbonate) containing varying concentrations of the test compounds. Antiviral activity was expressed as EC50 (50% effective concentration), or test compound concentration required to reduce virus-induced cytopathicity after seven days by 50% compared to the untreated control.
In some cases, the compounds had considerable cytotoxicity against HEL cells, which made determination of the EC50 difficult. In these cases, an estimate of the percent protection at the compound concentration indicated in the previous columns is given.

HIV-1 (IIIB) = assay: microbe, parasite or virus in culture; type: cell-based; settings: for EC50 (ug/ml) HIV-1 / EC50: CEM cells, syncytium formation, day four post infection; for HIV-1 % Protection: protection of CEM cells against virus-induced cytopathicity at the concentration in the previous column; for EC50: Human immunodeficiency virus 1, IIIB, CCRF-CEM, read-out: EC50 (ug/ml) HIV-1
Excerpt: (§1) The cell type used to determine activity of the compounds of the invention herein, i.e., the test compounds, against HIV was human T-lymphoblast (CEM) cells obtained from the American Tissue Cell Culture Collection (Rockville, Md.). HIV-1 (IIIB) was originally obtained from the culture of persistently HIV-1 infected H9 cells and was provided by R. C. Gallo and M. Popovic (National Cancer Institute, National Institutes of Health, Bethesda, Md.). HIV-2 (ROD) was originally obtained from L. M. Montagnier (Pasteur Institute, Paris, France).
(§2) To determine the antiviral activity of the test compounds, CEM cells were suspended at a cell density of approximately 300,000 cells per ml of culture medium and infected with approximately 100 CCID50 (100 CCID50 being the 50% cell culture infective dose) of HIV-1 (IIIB) or HIV-2 (ROD)). Then 100 μl of the infected cell suspensions was added to 200 μl micro titer plate wells containing 100 μl of appropriate serial (5-fold) dilutions of the test compounds. The inhibitory effect of the test compounds on HIV-1 or HIV-2 syncytium formation in CEM cells was examined microscopically on day four post infection.
(§3) In these cases, the percent protection of the cells against virus-induced cytopathicity by the test compounds at the indicated compound concentration in the previous column is given.

HIV-2 (ROD) = assay: Inhibition of HIV-2 syncytium formation in CEM cells; type: cell-based; settings: for EC50 (ug/ml) HIV-2 / EC50: CEM cells, syncytium formation, day four post infection; for HIV-2 % Protection: protection of CEM cells against virus-induced cytopathicity at the concentration in the previous column; for EC50: Human immunodeficiency virus 2, CCRF-CEM, read-out: EC50 (ug/ml) HIV-2
Excerpt: as §1, §2, §3

Compound | Antiviral EC50 (ug/ml) Davis strain CMV (Davis strain CMV) | EC50 (ug/ml) HIV-1 (HIV-1 (IIIB)) | EC50 (ug/ml) HIV-2 (HIV-2 (ROD)) | HIV-2 % Protection (HIV-2 (ROD)) | Antiviral % Inhibition Davis strain CMV (Davis strain CMV) | HIV-1 % Protection (HIV-1 (IIIB)) | EC50 (Davis strain CMV) | EC50 (HIV-1 (IIIB)) | EC50 (HIV-2 (ROD))
2-(4-(2,2-dichlorocyclopropyl)phenyl)methylsulfonyl)-pyridine-N-oxide [Compound 45] | 2.5 µg/mL | 1.75 µg/mL | 1.5 µg/mL | – | – | – | – | – | –
Cc1ccc(C(C)S(=O)(=O)c2c(C)ccc[n+]2[O-])c(C)c1 (racemic) [Compound 78] | 10.0 µg/mL | 1.40 µg/mL (≈ 4.58 µM) | >100.0 µg/mL | 0.0% | – | – | – | – | –
Cc1ccc(C)c(C(C)S(=O)(=O)c2c(Cl)ccc[n+]2[O-])c1 (racemic) [Compound 124] | >5 µg/mL | >.8 µg/mL | >0.80 µg/mL | 0.0% | 10.0% | 0.0% | – | – | –
CN1CCCCC1CSc1cccc[n+]1[O-] (racemic) [Compound 156] | >50 µg/mL | 16.00 µg/mL (≈ 67.1 µM) | >100 µg/mL | 0.0% | 0.0% | – | – | – | –
Cc1ccc(N)cc1C(C)S(=O)(=O)c1cccc[n+]1[O-] (stereo not drawn) [Compound 1] | >50 µg/mL | 20.00 µg/mL (≈ 68.4 µM) | 41.0 µg/mL (≈ 140 µM) | – | 0.0% | – | – | – | –
Cc1ccc(C)c(C[S+]([O-])c2cccc[n+]2[O-])c1 (stereo not drawn) [Compound 3] | 36.0 µg/mL | 7.20 µg/mL (≈ 27.5 µM) | ≧20 ug/ml | 37.5% | – | – | – | – | –
[O-][n+]1ccccc1SCc1ccccc1 [Compound 4] | >50 µg/mL | ≧100 ug/ml | >100 µg/mL | 0.0% | 0.0% | 37.5% | – | – | –
CCCCCCCC(c1cc(C)ccc1C)S(=O)(=O)c1cccc[n+]1[O-] (stereo not drawn) [Compound 7, 2-[1-(2,5-Dimethylphenyl)octylsulfonyl]pyridine N-oxide] | – | – | – | 0.0% | – | 0.0% | 0.7 µg/mL (≈ 1.86 µM) | > 0.8 µg/mL | > 0.8 µg/mL
O=S(=O)(Cc1cccs1)c1cccc[n+]1[O-] [Compound 8] | 11.0 µg/mL | >20 µg/mL | >20 µg/mL | 0.0% | – | 0.0% | – | – | –
Cc1ccc(C)c(C(C)S(=O)(=O)c2cccc[n+]2[O-])c1 (stereo not drawn) [Compound 9, 2-(1-[2,5-Dimethylphenyl]ethylsulfonyl)pyridine N-oxide] | – | – | – | 0.0% | 0.0% | 37.5% | > 50 µg/mL | ≥ 100 µg/mL | > 100 µg/mL
Cc1ccc(CS(=O)(=O)c2cccc[n+]2[O-])cc1 [Compound 11] | 29.0 µg/mL | 13.00 µg/mL (≈ 49.4 µM) | 10.0 µg/mL (≈ 38 µM) | – | – | – | – | – | –
O=S(=O)(Cc1ccc(Cl)cc1)c1cccc[n+]1[O-] [Compound 12] | 20.0 µg/mL | 9.50 µg/mL (≈ 33.5 µM) | 9.5 µg/mL (≈ 33.5 µM) | – | – | – | – | – | –
O=S(=O)(Cc1cccc2ccccc12)c1cccc[n+]1[O-] [Compound 13] | >5 µg/mL | 6.50 µg/mL (≈ 21.7 µM) | 6.0 µg/mL (≈ 20 µM) | – | 20.0% | – | – | – | –
O=[N+]([O-])c1ccc(CS(=O)(=O)c2cccc[n+]2[O-])cc1 [Compound 14] | 7.0 µg/mL | >4 µg/mL | >4 µg/mL | 25.0% | – | 0.0% | – | – | –
O=S(=O)(Cc1ccccc1Cl)c1cccc[n+]1[O-] [Compound 15] | 5.0 µg/mL | 6.00 µg/mL (≈ 21.1 µM) | 7.0 µg/mL (≈ 24.7 µM) | – | – | – | – | – | –
Cc1ccccc1CS(=O)(=O)c1cccc[n+]1[O-] [Compound 16, 2-(2-Methylphenylmethylsulfonyl)-pyridine N-oxide] | – | – | – | – | – | – | 12 µg/mL (≈ 45.6 µM) | 11 µg/mL (≈ 41.8 µM) | 7.5 µg/mL (≈ 28.5 µM)
O=S(=O)(Cc1c(Cl)cccc1Cl)c1cccc[n+]1[O-] [Compound 17, 2-(2,6-Dichlorophenylmethylsulfonyl)pyridine N-oxide] | – | – | – | – | – | – | 5 µg/mL (≈ 15.7 µM) | 9 µg/mL (≈ 28.3 µM) | 8 µg/mL (≈ 25.1 µM)
O=S(=O)(Cc1ccc(Cl)cc1Cl)c1cccc[n+]1[O-] [Compound 18] | 5.0 µg/mL | 2.40 µg/mL (≈ 7.54 µM) | 2.5 µg/mL (≈ 7.86 µM) | – | – | – | – | – | –
COc1ccc(CS(=O)(=O)c2cccc[n+]2[O-])cc1 [Compound 19] | 20.0 µg/mL | ≧20 ug/ml | 14.0 µg/mL (≈ 50.1 µM) | – | – | 37.5% | – | – | –
COc1ccc([N+](=O)[O-])cc1CS(=O)(=O)c1cccc[n+]1[O-] [Compound 20] | 13.0 µg/mL | 7.00 µg/mL (≈ 21.6 µM) | 13.0 µg/mL (≈ 40.1 µM) | – | – | – | – | – | –
O=S(=O)(Cc1cc2c(cc1Cl)OCO2)c1cccc[n+]1[O-] [Compound 21] | 10.0 µg/mL | 11.70 µg/mL (≈ 35.7 µM) | 6.3 µg/mL (≈ 19.2 µM) | – | – | – | – | – | –
O=S(=O)(Cc1ccc2c(c1)OCO2)c1cccc[n+]1[O-] [Compound 39] | >20 µg/mL | 9.00 µg/mL (≈ 30.7 µM) | – | – | 30.0% | – | – | – | –
Cc1ccccc1C[S+]([O-])c1cccc[n+]1[O-] (stereo not drawn) [Compound 90] | 37.0 µg/mL | ≧20 ug/ml | – | – | – | 37.5% | – | – | –
Cc1ccc(C)c(CSc2c(C)ccc[n+]2[O-])c1 [Compound 164] | – | 1.0 µg/mL (≈ 3.86 µM) | >20 µg/mL | 0.0% | – | – | – | – | –
Nc1nc2c(ncn2COC(CO)CO)c(=O)[nH]1 [DHPG, reference compound] | 1 µg/mL | – | – | – | – | – | – | – | –
Nc1ccn(C[C@@H](CO)OCP(=O)(O)O)c(=O)n1 [S-HPMPC, reference compound] | 0.3 µg/mL | – | – | – | – | – | – | – | –
